In paper PMC5314759 (2016) one finds ΔTM and Kapp data, which are given here for three compounds.

In test [1] the test system is poly[d(G-C)2] (DNA, polymer) GC. The test can be described thus: UV thermal melting. The note with it: compound concentration not given here; no significant stabilization.
Test [2] shares this test system. In words: ethidium bromide fluorescence displacement. The note with it: apparent; ethidium bromide displaced; Kapp = Kb × 12.6/C50; over 5 h.
The test system of test [3] is poly[d(A-T)2] (DNA, polymer) AT. The test can be described thus: ethidium bromide fluorescence displacement. The note with it: apparent; ethidium bromide displaced; Kapp = Kb × 12.6/C50; over 5 h.
Test [4] has the same test system. In words: UV thermal melting. The following applies: compound concentration not given here; no significant stabilization.

The structures appear in SMILES notation.

Turning to `CO[C@H]1C=C[C@H]2[C@H]3Cc4ccc(OCc5c(C)c(COc6ccc7c8c6O[C@H]6[C@@H](OC)C=C[C@H]9[C@@H](C7)N(C)CC[C@@]896)c(C)c(COc6ccc7c8c6O[C@H]6[C@@H](OC)C=C[C@H]9[C@@H](C7)N(C)CC[C@@]896)c5C)c5c4[C@@]2(CCN3C)[C@H]1O5`, the ΔTM in test [1] is 1.72 ± 0.61 °C; in test [4] it was 0.73 ± 0.18 °C. Besides, the Kapp in test [2] is 1.15 × 10^7 M(bp)^-1; in test [3], 9.1 × 10^6 M(bp)^-1.
Consider `COC1=CC=C2[C@H]3Cc4ccc(OCc5c(C)c(COc6ccc7c8c6O[C@H]6C(OC)=CC=C9[C@@H](C7)N(C)CC[C@]986)c(C)c(COc6ccc7c8c6O[C@H]6C(OC)=CC=C9[C@@H](C7)N(C)CC[C@]986)c5C)c5c4[C@@]2(CCN3C)[C@H]1O5`, for which the ΔTM in test [1] was 0.36 ± 0.17 °C; in test [4], −0.17 ± 0.25 °C. The Kapp is 3.5 × 10^7 M(bp)^-1 in test [2] and 3.63 × 10^6 M(bp)^-1 in test [3].
Regarding `Cc1c(COc2ccc3c4c2O[C@H]2[C@@H](O)C=C[C@H]5[C@@H](C3)N(C)CC[C@@]452)c(C)c(COc2ccc3c4c2O[C@H]2[C@@H](O)C=C[C@H]5[C@@H](C3)N(C)CC[C@@]452)c(C)c1COc1ccc2c3c1O[C@H]1[C@@H](O)C=C[C@H]4[C@@H](C2)N(C)CC[C@@]341`, the ΔTM stood at 2.63 ± 0.58 °C in test [1] and 0.38 ± 0.71 °C in test [4]. For the same compound, the results for the Kapp in test [2] and in test [3] were 2.69 × 10^5 M(bp)^-1 and 3.03 × 10^5 M(bp)^-1, respectively.
